Patent publication US9144594B2, “Cathepsin L mediated diseases and associated methods and products” (University of Miami, priority 2005, dated 2015)
“Also recorded” adds a separate entry of the source. Where a SMILES comes first, the peptide text is derived from it. The star is where a group is joined. Cbz = O=C(OCc1ccccc1)*; CH2F = FC*

Columns and labels:
LPS-induced proteinuria = LPS-induced proteinuria in mice treated with inhibitors, albuminuria by gel quantification; type: in vivo, mouse; details: FIG. 29A
Method: Proteinuria was induced in male B6 mice (n=5 per group) by LPS injection. The mice were injected the mice with 250 μg ultrapure LPS (InvivoGen) intraperitoneally (i.p.) and started treatment with 200 μg cathepsin L inhibitor VI (Calbiochem) 30 min after disease induction. The LPS and inhibitor injections were repeated at 24 h and the mice were sacrificed at 48 h.
To quantify the level of proteinuria, urine was diluted with double-distilled water, boiled the diluted urine in sample buffer and analyzed the samples by NuPAGE (Invitrogen) followed by Coomassie blue staining BSA standards (from 0.125 to 2.0 μg) were run on the same gel and were used to identify and quantify urinary albumin bands. The albumin bands were quantified with ImageJ software (NIH) and determined the creatinine abundance from the same urine samples with a commercial kit (Cayman Chemical) according to the manufacturer's protocol.

[1] = tested on: CatL-mediated degradation of synaptopodin; assay: Western blot of isolated glomeruli, LPS-induced degradation of synaptopodin and RhoA; type: in vivo, mouse; details: FIG. 29B
Source text: FIG. 29A: SDS-PAGE analysis of urines from control and LPS-injected mice (top). Quantitative analysis of albuminuria (bottom). FIG. 29B: Western blot analysis of isolated glomeruli showing that LPS causes the degradation of endogenous synaptopodin and RhoA.

cathepsin L = assay: Generation of dynamin p40 fragment in LPS-treated cultured podocytes (Western blot); type: cell-based, mouse; details: LPS-treated podocytes expressing dynWT
Source text: Next, it was examined whether cathepsin L could process dynamin in vivo, and whether this processing required GTP binding by dynamin. To this end, cultured podocytes were infected with adenoviruses expressing dynWT as well as different dynamin mutants. Infected podocytes were subsequently treated with LPS. LPS treatment increases cathepsin L presence and the activity in the cytosol (FIG. 3), and thus is expected to induce generation of the 40 kD proteolytic fragment. Respective cytosols were probed using the GTPase antibodies in order to detect N-terminal 40 kD proteolytic fragment. Expression of dynWT in podocytes treated with LPS identified proteolytic fragments that traveled with the same mobility as fragments observed in vitro. […] Furthermore, significant amount of p40 was present in cells expressing dynR725A prior to LPS treatment. […] Given complete protection of cathepsin L cleavage by GTPγS, it was reasoned that LPS treatment was somehow inducing dynR725A self-assembly, which in turn was protecting dynR725A from cathepsin L cleavage. This in turn would explain ability of dynR725A to counteract LPS and PAN treatment (FIG. 1D). […] Biochemical difference between dynWT, dynK694A and dynR725A is that only dynR725A is impaired in the rate of GTP-hydrolysis of assembled dynamin. This is important because GTP-hydrolysis drives disassemble of dynamin. Thus, while all three dynamins are predicted to self-assemble by LPS treatment, only dynR725A will stay assembled due to its inability to hydrolyze GTP. Once assembled dynWT and dynK694A hydrolyze GTP they will fall apart and thus become accessible for cathepsin L cleavage.
To explore CatL-mediated dynamin cleavage in vivo, cultured podocytes were infected with adenoviruses encoding different dynamin mutants and subsequently treated with LPS (FIG. 19G). […] To confirm the identity of the cleavage site, the ELSGGA (SEQ ID NO.29) sequence was mutated to EQSVGA (SEQ ID NO.31) (for simplicity, the mutant is subsequently referred to as dynL356Q). […] Finally, a GTPase-defective dynamin mutant was examined. Dynamin carrying a mutation in its […] (dynR725A) oligomerizes, but is impaired in assembly-stimulated GTP-hydrolysis. DynR725A is therefore predicted to live longer in the assembled state.
Podocytes were grown under non-permissive conditions to 70% confluence. Cells were washed twice with 1×PBS and infected with 1.2 ml of serum-free DMEM media containing 100 μl transactivator virus, 100 μl virus expressing dyn1 or dyn2. After 2 h of infection at 37° C., media containing virus was replaced with full DMEM. If cells were treated with LPS or PAN, 50 μg/ml of LPS or 50 μg/ml PAN was added at this point. 18-24 h post-infection, cells were detached using trypsin and processed either for subcellular fractionation or tested in the motility assays as described in (Reiser et al., J Biol Chem 279, 34827-34832 (2004)). When stated, 20 μM of Z-FF-FMK CatL specific inhibitor (Calbiochem, San Diego, Calif.) was added simultaneously with addition of LPS.

CatL = assay: Cathepsin activity in LPS-treated podocytes with fluorogenic substrate CV-(FR)2; type: cell-based, mouse; details: after LPS administration
Source text: (§1) Finally, it was examined whether CatL can be enzymatically active in the cytosol. Subcellular sites of CatL and CatB activity were visualized by a fluorogenic substrate, CV-(FR)2, which emits light upon cleavage by CatL. In untreated podocytes, protease activity was low and confined to perinuclear lysosomes (FIG. 17F).

CatB = molecular target: T1, CatB (Mus musculus, UniProt P10605); assay: Cathepsin activity in podocytes with fluorogenic substrate CV-(FR)2, CatB; type: cell-based
T1 construct: endogenous in cells; host or cells: cultured mouse podocytes
T1 sequence (P10605 80-333): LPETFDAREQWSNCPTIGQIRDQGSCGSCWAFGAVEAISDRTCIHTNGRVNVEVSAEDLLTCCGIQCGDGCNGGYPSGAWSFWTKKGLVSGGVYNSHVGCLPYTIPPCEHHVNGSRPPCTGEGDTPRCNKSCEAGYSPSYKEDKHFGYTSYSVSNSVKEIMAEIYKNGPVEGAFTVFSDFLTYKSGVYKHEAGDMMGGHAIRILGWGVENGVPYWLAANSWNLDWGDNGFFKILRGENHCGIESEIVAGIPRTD
Source text: as §1

CC(C)C[C@H](NC(=O)[C@H]1O[C@@H]1C(=O)O)C(=O)NCCCCN=C(N)N [E64]
LPS-induced proteinuria (albuminuria), in words (LPS-induced proteinuria): ameliorate LPS-induced proteinuria | LPS-induced degradation of synaptopodin and RhoA, in words [1]: block the LPS-induced degradation of synaptopodin and RhoA | dynamin cleavage / p40 generation with inhibitor, in words (cathepsin L): cleavage could be blocked

O=C(NC(Cc1ccccc1)C(=O)NC(Cc1ccccc1)C(=O)CF)OCc1ccccc1 (stereo not drawn) [Z-FF-FMK, Z-Phe-Phe-fluoromethyl ketone, reference compound] (Cbz-Phe-Phe-CH2F; configuration not given here)
dynamin cleavage / p40 generation with inhibitor, in words (cathepsin L): resulted specifically in the loss of p40; also recorded: inhibited | extralysosomal cathepsin activity, in words (CatL): vast majority of extralysosomal cathepsin activity after LPS administration was sensitive | inhibition of CatB, in words (CatB): does not inhibit CatB
